Measurements published in US20250114460A1, “NOVEL PLK1 DEGRADATION INDUCING COMPOUND” (UPPTHERA, INC., priority 2021, published 2025).
Like-named read-outs stand apart in the source and are kept apart here.

Columns and labels:
Assay type in all cases: cell-based
[1] = target: T1, PLK1 (Homo sapiens, UniProt P53350); test: Luciferase assay for PLK1 in HeLa LgBit (Plk1-HiBit KI) cell line; details: 300 nM compound, luminescence after 9 hours
T1 construct: endogenous in cells; host or cells: HeLa LgBit (Plk1-HiBit KI): HeLa stably expressing LgBit, with a CRISPR/Cas9 knock-in of HiBit at the endogenous PLK1 locus
Method in brief: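 Luminescence, followed in real time after adding compound at 300 nM and Endurazine substrate, is reported relative to DMSO-treated wells. Cells are a HeLa LgBit line with a Plk1-HiBit knock-in, synchronized by 2 mM thymidine for 24 h, released, and cultured 18 h before treatment.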

[2] = test system: MRC-5 cell line; test: Cell viability assay for MRC-5 cell line (EZ-Cytox); details: Homo sapiens, MRC5, 120 h, read-out: Activity: IC50 value of Exemplary Compound to MRC-5 cell line
Method: 4. Cell Viability Assay for MRC-5 Cell Line
(1) Culture of MRC-5 Cell Line
Passage of cultured cells was maintained within P15.
(2) Treatment of Compounds of the Present Invention
Then, it was cultured in 37° C.
(3) Cytotoxicity Experiment
CO2 incubator for 4 hours.

[3] = test system: NCI-H526 cell line; test: Cell viability assay for H526 cell (EZ-Cytox); details: Homo sapiens, NCI-H526, 120 h; H526 cells, 5 days, 3000 nM to 0.46 nM
Method in brief: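 Read-out was EZ-Cytox colorimetric absorbance at 450 nm, taken after brief plate shaking, with IC50 derived. Before reading, H526 cells had been cultured with test compound for 5 days.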

[4] = MRC-5 normal cell line, 5 days, 10000 nM to 1.52 nM, N.D. = no cytotoxicity until 10 μM

T1 sequence (P53350 whole entry): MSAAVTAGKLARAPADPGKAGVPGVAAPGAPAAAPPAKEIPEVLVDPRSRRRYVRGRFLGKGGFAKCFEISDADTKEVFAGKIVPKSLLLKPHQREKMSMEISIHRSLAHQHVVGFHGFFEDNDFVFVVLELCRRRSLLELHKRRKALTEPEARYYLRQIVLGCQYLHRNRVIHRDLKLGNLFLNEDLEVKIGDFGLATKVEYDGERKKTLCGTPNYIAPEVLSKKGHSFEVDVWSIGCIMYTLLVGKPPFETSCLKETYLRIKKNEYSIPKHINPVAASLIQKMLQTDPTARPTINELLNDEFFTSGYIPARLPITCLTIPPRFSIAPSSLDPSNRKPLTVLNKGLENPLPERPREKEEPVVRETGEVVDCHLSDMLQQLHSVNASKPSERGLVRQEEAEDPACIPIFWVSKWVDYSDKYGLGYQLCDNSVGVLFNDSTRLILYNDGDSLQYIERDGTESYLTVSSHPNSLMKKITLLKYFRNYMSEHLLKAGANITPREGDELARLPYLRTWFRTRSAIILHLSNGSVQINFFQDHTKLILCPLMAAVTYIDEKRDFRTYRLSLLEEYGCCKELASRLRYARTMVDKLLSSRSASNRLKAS

Activity: ratio of the luminescense value of each Exemplary Compound treatment group to DMSO treatment group [1]	Structure (SMILES)	IC50 [2, 4] [µM]	IC50 [3] [µM]	IC50 [2] [µM]
++ (++<0.6)	COc1cc(C(=O)NC2CCN(C(=O)CCN3CCN(c4cccc5c4CN(C4CCC(=O)NC4=O)C5=O)CC3)CC2)ccc1Nc1ncc2c(n1)N(C(C)C)CC(F)(F)C(=O)N2C (stereo not drawn) [Compound 133, 4-((7,7-difluoro-9-isopropyl-5-methyl-6-oxo-6,7,8,9-tetrahydro-5H-pyrimido[4,5-b][1,4]diazepin-2-yl)amino)-N-(1-(3-(4-(2-(2,6-dioxopiperidin-3-yl)-1-oxoisoindolin-4-yl)piperazin-1-yl)propanoyl)piperidin-4-yl)-3-methoxybenzamide]	> 10	< 0.05	
++ (++<0.6)	COc1cc(C(=O)N[C@H]2CC[C@H](N3CCN(CCOCCNc4cccc5c4C(=O)N(C4CCC(=O)NC4=O)C5=O)CC3)CC2)ccc1Nc1ncc2c(n1)N(C1CCCC1)CC(F)(F)C(=O)N2C (stereo partly drawn) [Compound 194, 4-((9-cyclopentyl-7,7-difluoro-5-methyl-6-oxo-6,7,8,9-tetrahydro-5H-pyrimido[4,5-b][1,4]diazepin-2-yl)amino)-N-((1r,4r)-4-(4-(2-(2-((2-(2,6-dioxopiperidin-3-yl)-1,3-dioxoisoindolin-4-yl)amino)ethoxy)ethyl)piperazin-1-yl)cyclohexyl)-3-methoxybenzamide]	> 10	< 0.05	

The next lines start with the compound.

Structure (SMILES)	Activity: ratio of the luminescense value of each Exemplary Compound treatment group to DMSO treatment group [1]	IC50 [2, 4] [µM]	IC50 [3] [µM]	IC50 [2] [µM]
COc1cc(C(=O)NC2CCN(C(=O)CC3CCN(c4ccc5c(c4)C(=O)N(C4CCC(=O)NC4=O)C5=O)C3)CC2)c(F)cc1Nc1ncc2c(n1)N(C1CCCC1)CC(F)(F)C(=O)N2C (stereo not drawn) [Compound 45, 4-((9-cyclopentyl-7,7-difluoro-5-methyl-6-oxo-6,7,8,9-tetrahydro-5H-pyrimido[4,5-b][1,4]diazepin-2-yl)amino)-N-(1-(2-(1-(2-(2,6-dioxopiperidin-3-yl)-1,3-dioxoisoindolin-5-yl)pyrrolidin-3-yl)acetyl)piperidin-4-yl)-2-fluoro-5-methoxybenzamide]	++ (++<0.6)	> 10	< 0.1	
COc1cc(C(=O)NC2CCCN(CCCN3CCN(c4cccc5c4C(=O)N(C4CCC(=O)NC4=O)C5=O)CC3)C2)ccc1Nc1ncc2c(n1)N(C1CCCC1)CC(F)(F)C(=O)N2C (stereo not drawn) [Compound 144, 4-((9-cyclopentyl-7,7-difluoro-5-methyl-6-oxo-6,7,8,9-tetrahydro-5H-pyrimido[4,5-b][1,4]diazepin-2-yl)amino)-N-(1-(3-(4-(2-(2,6-dioxopiperidin-3-yl)-1,3-dioxoisoindolin-4-yl)piperazin-1-yl)propyl)piperidin-3-yl)-3-methoxybenzamide]	++ (++<0.6)		< 0.05	4.08
COc1cc(C(=O)NN2CCN(C(=O)CCC3CCN(c4ccc5c(c4)CN(C4CCC(=O)NC4=O)C5=O)CC3)CC2)ccc1Nc1ncc2c(n1)N(C(C)C)CC(F)(F)C(=O)N2C (stereo not drawn) [Compound 59, 4-((7,7-difluoro-9-isopropyl-5-methyl-6-oxo-6,7,8,9-tetrahydro-5H-pyrimido[4,5-b][1,4]diazepin-2-yl)amino)-N-(4-(3-(1-(2-(2,6-dioxopiperidin-3-yl)-1-oxoisoindolin-5-yl)piperidin-4-yl)propanoyl)piperazin-1-yl)-3-methoxybenzamide]	++ (++<0.6)	> 10	< 0.03	
COc1cc(C(=O)N[C@H]2CC[C@H](N(C)CCN3CCN(c4ccc5c(c4)C(=O)N(C4CCC(=O)NC4=O)C5=O)CC3)CC2)ccc1Nc1ncc2c(n1)N(C(C)C)CC(F)(F)C(=O)N2C (stereo partly drawn) [Compound 156, 4-((7,7-difluoro-9-isopropyl-5-methyl-6-oxo-6,7,8,9-tetrahydro-5H-pyrimido[4,5-b][1,4]diazepin-2-yl)amino)-N-((1r,4r)-4-((2-(4-(2-(2,6-dioxopiperidin-3-yl)-1,3-dioxoisoindolin-5-yl)piperazin-1-yl)ethyl)(methyl)amino)cyclohexyl)-3-methoxybenzamide]	++ (++<0.6)	> 10	< 0.05	
